Legend:
cocklebur = test: Test B pre/postemergence cocklebur; assay type: in vivo, Xanthium strumarium
Procedure, shortened: (§1)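 Test chemicals in a non-phytotoxic solvent mixture with surfactant were sprayed preemergence onto planted seeds and postemergence onto plants 2 to 18 cm tall (1- to 4-leaf stage). After twelve to sixteen days in a greenhouse, injury was visually rated against untreated controls from 0 (no effect) to 10 (complete control).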

corn = test: Test B pre/postemergence corn; assay type: in vivo, Zea mays
Procedure, shortened: as §1

crabgrass = test: Test B pre/postemergence crabgrass; assay type: in vivo, Digitaria sanguinalis
Procedure, shortened: as §1

giant foxtail = test: Test B pre/postemergence giant foxtail; assay type: in vivo, Setaria faberii
Procedure, shortened: as §1

morningglory = test: Test B pre/postemergence morningglory; assay type: in vivo, Ipomoea hederacea
Procedure, shortened: as §1

pigweed = test: Test B pre/postemergence pigweed; assay type: in vivo, Amaranthus retroflexus
Procedure, shortened: as §1

rape = test: Test B pre/postemergence rape; assay type: in vivo, Brassica napus
Procedure, shortened: as §1

soybean = test: Test B pre/postemergence soybean; assay type: in vivo, Glycine max
Procedure, shortened: as §1

sugar beet = test: Test B pre/postemergence sugar beet; assay type: in vivo, Beta vulgaris
Procedure, shortened: as §1

velvetleaf = test: Test B pre/postemergence velvetleaf; assay type: in vivo, Abutilon theophrasti
Procedure, shortened: as §1

wheat = test: Test B pre/postemergence wheat; assay type: in vivo, Triticum aestivum
Procedure, shortened: as §1

wild oat = test: Test B pre/postemergence wild oat; assay type: in vivo, Avena fatua
Procedure, shortened: as §1

purple nutsedge = test: Test B pre/postemergence purple nutsedge; assay type: in vivo, Cyperus rotundus
Procedure, shortened: as §1

rice = test: Test B flood test rice; assay type: in vivo, Oryza sativa
Procedure, shortened: (§2)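 Read-out is a visual response score from 0 (no effect) to 10 (complete control), assigned by comparison with untreated controls. Treatment was applied at the 2-leaf stage, and plants stayed in the greenhouse for twelve to sixteen days before scoring.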

duck salad = test: Test B flood test duck salad; assay type: in vivo, Heteranthera limosa
Procedure, shortened: as §2

bamyardgrass = test: Test B flood test barnyardgrass; assay type: in vivo, Echinochloa crus-galli
Procedure, shortened: as §2

[1] = Preemergence, Rate 62 g/ha, scale of 0 to 10 where 0 is no effect and 10 is complete control
[2] = Preemergence, Rate 125 g/ha, 0 is no effect, 10 is complete control
[3] = Preemergence, Rate 250 g/ha, scale 0 to 10, 0 is no effect, 10 is complete control
[4] = Preemergence, Rate 500 g/ha, scale 0 to 10 (0 no effect, 10 complete control)
[5] = Rate 62 g/ha, Postemergence, scale of 0 to 10 where 0 is no effect and 10 is complete control
[6] = Rate 125 g/ha, Postemergence, scale 0 to 10
[7] = Rate 500 g/ha, Postemergence, scale 0 to 10
[8] = Rate 62 g/ha, headed Pre-emergence (flood test species), scale 0 to 10 (0 no effect, 10 complete control)
[9] = Rate 125 g/ha, Pre-emergence, flood test species, scale 0 to 10 where 0 is no effect and 10 is complete control
[10] = Rate 250 g/ha, Pre-emergence, flood-test species, scale 0 to 10, 0 is no effect, 10 is complete control
[11] = Rate 500 g/ha, headed Pre-emergence (flood test species), scale 0 to 10 (0 no effect, 10 complete control)

Cc1ccccc1-n1c(=O)on(C(=O)N(c2ccc(-c3ccccc3)cc2)C(C)C)c1=O [Compound 187]
0: Cocklebur plant response rating (cocklebur; [1]) | Cocklebur plant response rating (0 to 10 scale) (cocklebur; [2]) | Cocklebur plant response rating (cocklebur; [3]) | Cocklebur plant response rating (cocklebur; [4]) | Cocklebur plant response rating (cocklebur; [5]) | Cocklebur plant response rating (cocklebur; [6]) | Plant response rating (0 to 10; 0 is no effect, 10 is complete control), Cocklebur (cocklebur; Rate 250 g/ha, Postemergence) | Cocklebur plant response rating (cocklebur; [7]) | Corn plant response rating (corn; [1]) | Corn plant response rating (0 to 10 scale) (corn; [2]) | Corn plant response rating (corn; [3]) | Corn plant response rating (corn; [4]) | Corn plant response rating (corn; [5]) | Corn plant response rating (corn; [6]) | Plant response rating (0 to 10; 0 is no effect, 10 is complete control), Corn (corn; Rate 250 g/ha, Postemergence) | Corn plant response rating (corn; [7]) | Crabgrass plant response rating (crabgrass; [1]) | Crabgrass plant response rating (0 to 10 scale) (crabgrass; [2]) | Crabgrass plant response rating (crabgrass; [3]) | Crabgrass plant response rating (crabgrass; [4]) | Crabgrass plant response rating (crabgrass; [5]) | Crabgrass plant response rating (crabgrass; [6]) | Plant response rating (0 to 10; 0 is no effect, 10 is complete control), Crabgrass (crabgrass; Rate 250 g/ha, Postemergence) | Crabgrass plant response rating (crabgrass; [7]) | Giant foxtail plant response rating (giant foxtail; [1]) | Giant foxtail plant response rating (0 to 10 scale) (giant foxtail; [2]) | Giant foxtail plant response rating (giant foxtail; [3]) | Giant foxtail plant response rating (giant foxtail; [4]) | Giant foxtail plant response rating (giant foxtail; [5]) | Giant foxtail plant response rating (giant foxtail; [6]) | Plant response rating (0 to 10; 0 is no effect, 10 is complete control), Giant foxtail (giant foxtail; Rate 250 g/ha, Postemergence) | Giant foxtail plant response rating (giant foxtail; [7]) | Morningglory plant response rating (morningglory; [1]) | Morningglory plant response rating (0 to 10 scale) (morningglory; [2]) | Morningglory plant response rating (morningglory; [3]) | Morningglory plant response rating (morningglory; [4]) | Morningglory plant response rating (morningglory; [5]) | Morningglory plant response rating (morningglory; [6]) | Plant response rating (0 to 10; 0 is no effect, 10 is complete control), Morningglory (morningglory; Rate 250 g/ha, Postemergence) | Morningglory plant response rating (morningglory; [7]) | Redroot pigweed plant response rating (pigweed; [1]) | Redroot pigweed plant response rating (0 to 10 scale) (pigweed; [2]) | Redroot pigweed plant response rating (pigweed; [3]) | Redroot pigweed plant response rating (pigweed; [4]) | Redroot pigweed plant response rating (pigweed; [5]) | Redroot pigweed plant response rating (pigweed; [6]) | Plant response rating (0 to 10; 0 is no effect, 10 is complete control), Redroot pigweed (pigweed; Rate 250 g/ha, Postemergence) | Redroot pigweed plant response rating (pigweed; [7]) | Rape plant response rating (rape; [1]) | Rape plant response rating (0 to 10 scale) (rape; [2]) | Rape plant response rating (rape; [3]) | Rape plant response rating (rape; [4]) | Rape plant response rating (rape; [5]) | Rape plant response rating (rape; [6]) | Plant response rating (0 to 10; 0 is no effect, 10 is complete control), Rape (rape; Rate 250 g/ha, Postemergence) | Rape plant response rating (rape; [7]) | Soybean plant response rating (soybean; [1]) | Soybean plant response rating (0 to 10 scale) (soybean; [2]) | Soybean plant response rating (soybean; [3]) | Soybean plant response rating (soybean; [4]) | Soybean plant response rating (soybean; [5]) | Soybean plant response rating (soybean; [6]) | Plant response rating (0 to 10; 0 is no effect, 10 is complete control), Soybean (soybean; Rate 250 g/ha, Postemergence) | Soybean plant response rating (soybean; [7]) | Sugarbeets plant response rating (sugar beet; [1]) | Sugarbeets plant response rating (0 to 10 scale) (sugar beet; [2]) | Sugarbeets plant response rating (sugar beet; [3]) | Sugarbeets plant response rating (sugar beet; [4]) | Sugarbeets plant response rating (sugar beet; [5]) | Sugarbeets plant response rating (sugar beet; [6]) | Plant response rating (0 to 10; 0 is no effect, 10 is complete control), Sugarbeets (sugar beet; Rate 250 g/ha, Postemergence) | Sugarbeets plant response rating (sugar beet; [7]) | Velvetleaf plant response rating (velvetleaf; [1]) | Velvetleaf plant response rating (velvetleaf; [3]) | Velvetleaf plant response rating (velvetleaf; [4]) | Velvetleaf plant response rating (velvetleaf; [5]) | Velvetleaf plant response rating (velvetleaf; [6]) | Plant response rating (0 to 10; 0 is no effect, 10 is complete control), Velvetleaf (velvetleaf; Rate 250 g/ha, Postemergence) | Wheat plant response rating (wheat; [1]) | Wheat plant response rating (wheat; [3]) | Wheat plant response rating (wheat; [4]) | Wheat plant response rating (wheat; [5]) | Wheat plant response rating (wheat; [6]) | Plant response rating (0 to 10; 0 is no effect, 10 is complete control), Wheat (wheat; Rate 250 g/ha, Postemergence) | Wild oats plant response rating (wild oat; [1]) | Wild oats plant response rating (wild oat; [3]) | Wild oats plant response rating (wild oat; [4]) | Wild oats plant response rating (wild oat; [5]) | Wild oats plant response rating (wild oat; [6]) | Plant response rating (0 to 10; 0 is no effect, 10 is complete control), Wild oats (wild oat; Rate 250 g/ha, Postemergence) | Nutsedge plant response rating (purple nutsedge; [1]) | Nutsedge plant response rating (0 to 10 scale) (purple nutsedge; [2]) | Nutsedge plant response rating (purple nutsedge; [3]) | Nutsedge plant response rating (purple nutsedge; [4]) | Nutsedge plant response rating (purple nutsedge; [5]) | Nutsedge plant response rating (purple nutsedge; [6]) | Plant response rating (0 to 10; 0 is no effect, 10 is complete control), Nutsedge (purple nutsedge; Rate 250 g/ha, Postemergence) | Nutsedge plant response rating (purple nutsedge; [7]) | Rice plant response rating (rice; [8]) | Rice plant response rating (rice; [9]) | Rice plant response rating (rice; [10]) | Plant response rating, Rice (rice; [11]) | Ducksalad plant response rating (duck salad; [8]) | Ducksalad plant response rating (duck salad; [9]) | Ducksalad plant response rating (duck salad; [10]) | Plant response rating, Ducksalad (duck salad; [11]) | Barnyardgrass plant response rating (bamyardgrass; [8]) | Barnyardgrass plant response rating (bamyardgrass; [9]) | Barnyardgrass plant response rating (bamyardgrass; [10]) | Plant response rating, Barnyardgrass (bamyardgrass; [11])

Reference: patent US6737383B1, “Herbicidal oxadiazolidines” (priority 1999, dated 2004)
